Source: US20230041996A1, “CALCIUM-SENSING RECEPTOR AGONIST COMPOUND AND APPLICATION THEREOF” (BEIJING TUO JIE BIOPHARMACEUTICAL CO. LTD., priority 2019, published 2023)
Read-outs that look alike come from different tables or passages of the source. Square brackets hold non-standard residues; d marks the D form. Peptide text beside a SMILES is read from it. * marks the point of attachment. Cys(free,S-linked) = N[C@@H](CS*)C(=O)O; d2Thi = N[C@H](Cc1cccs1)C(=O)O; dAbu = CC[C@@H](N)C(=O)O

Tests used:
Assay type in all cases: cell-based
human red blood cells = assay: Hemolytic effect on human red blood cells in vitro (absorbance at 540 nm); settings: 100 μg/mL in PBS, 37° C., 1 h, FIG. 1
Description: To evaluate the hemolytic effect of the compounds disclosed herein on red blood cells in vitro, human whole blood (100 μL) was taken and mixed with a phosphate buffer. The mixture was centrifuged at 4° C. for 10 min and the supernatant was discarded. The red blood cells were resuspended in PBS buffer (900 μL) and centrifuged at 4° C. for 10 min with the supernatant discarded, and the procedures above were repeated once. The test example compounds were dissolved in 1×PBS buffer to a final concentration of 100 μg/mL. The red blood cells were resuspended in solutions of various test example compounds, an octylphenoxy poly(ethyleneoxy)ethanol-100 solution or PBS buffer, and incubated at 37° C. for 1 h. After incubation, the cells were centrifuged at 4° C. for 10 min and the supernatant (100 μL) was pipetted and transferred to a 96-well plate. The absorbance at 540 nm was detected for evaluating the hemolytic effect of the test example compounds on red blood cells in vitro.

[1] = tested on: rat peritoneal mast cells; assay: In vitro histamine release in rat peritoneal mast cells (histamine ELISA); settings: for Relative fold of histamine release in vitro: test compound final concentration 10 μM, 15 min at 37° C., relative to PBS buffer (1.00); for histamine release levels in rat peritoneal mast cells in vitro relative to etelcalcetide: 10 μM, comparison with etelcalcetide
Summary of the method: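 Rat peritoneal mast cells, washed into HBSS + 25 mM HEPES + 1 mM CaCl2 (pH 7.4), were exposed to test compounds at 10 μM final, 48/80 at 4 μg/mL or vehicle for 15 min at 37° C. Histamine released into the supernatant was quantified by ELISA.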

[2] = biological target: T1, human calcium-sensing receptor (CaSR) (Homo sapiens, UniProt P41180); assay: Agonist activity on human calcium-sensing receptor (IP-One HTRF in stably transfected HEK293/CaSR cells)
T1 construct: host or cells: HEK293
T1 sequence (P41180 20-1078): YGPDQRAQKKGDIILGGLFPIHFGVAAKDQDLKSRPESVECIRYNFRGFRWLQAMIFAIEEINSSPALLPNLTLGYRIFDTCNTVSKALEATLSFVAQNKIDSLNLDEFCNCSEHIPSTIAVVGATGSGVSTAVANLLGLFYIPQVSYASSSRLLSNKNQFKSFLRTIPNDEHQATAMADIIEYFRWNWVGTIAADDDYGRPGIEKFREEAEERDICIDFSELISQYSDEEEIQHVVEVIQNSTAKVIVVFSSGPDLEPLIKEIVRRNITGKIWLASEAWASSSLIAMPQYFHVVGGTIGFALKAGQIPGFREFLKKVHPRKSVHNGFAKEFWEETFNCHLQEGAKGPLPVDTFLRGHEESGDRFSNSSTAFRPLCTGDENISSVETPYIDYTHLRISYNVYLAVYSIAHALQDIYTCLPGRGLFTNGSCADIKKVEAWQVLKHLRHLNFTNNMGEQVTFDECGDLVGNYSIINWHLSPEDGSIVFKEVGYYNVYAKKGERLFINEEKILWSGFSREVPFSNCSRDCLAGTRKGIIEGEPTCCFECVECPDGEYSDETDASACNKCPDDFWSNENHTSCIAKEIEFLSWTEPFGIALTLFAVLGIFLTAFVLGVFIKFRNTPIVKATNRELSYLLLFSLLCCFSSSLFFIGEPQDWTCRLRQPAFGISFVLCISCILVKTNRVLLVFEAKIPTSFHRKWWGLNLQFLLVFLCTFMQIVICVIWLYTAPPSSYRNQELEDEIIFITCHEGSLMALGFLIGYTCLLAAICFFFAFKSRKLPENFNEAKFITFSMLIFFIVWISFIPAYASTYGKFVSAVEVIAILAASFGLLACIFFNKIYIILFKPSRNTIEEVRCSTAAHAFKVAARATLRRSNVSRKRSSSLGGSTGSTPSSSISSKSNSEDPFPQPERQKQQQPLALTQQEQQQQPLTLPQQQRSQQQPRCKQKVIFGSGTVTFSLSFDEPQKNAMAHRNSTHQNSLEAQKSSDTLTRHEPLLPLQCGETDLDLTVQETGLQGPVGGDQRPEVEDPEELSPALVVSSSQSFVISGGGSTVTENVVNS
Summary of the method: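 HEK293 cells stably expressing CaSR stimulated 60 min at 37 °C with compounds in buffer containing 1.2 mM CaCl2, 0.5 mM MgCl2 and 50 mM LiCl. IP-One accumulation measured by HTRF (665/620 nm ratio); EC50 from four-parameter fit.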

[3] = HEK293/CaSR cells, IP-One production, 60 min at 37° C., CaCl2 1.2 mM, read-out: EC50 for calcium-sensing receptor

Row | SMILES | hemolytic effect on red blood cells (human red blood cells) | Relative fold of histamine release in vitro [1] | EC50 [2, 3] [µM] | histamine release levels in rat peritoneal mast cells in vitro relative to etelcalcetide [1] | EC50 [2] [µM]
1 | CC(=O)N[C@H](CSSC[C@H](N)C(=O)O)C(=O)N[C@H](CCCNC(=N)N)C(=O)N[C@H](CCCNC(=N)N)C(=O)N[C@H](Cc1cccs1)C(=O)N[C@H](CCCNC(=N)N)C(=O)N[C@H](C)C(=O)N[C@H](CCCNC(=N)N)C(N)=O [Compound 13, Ac-c(C)-r-r-(D-2-Thi)-r-a-r-NH2] (Ac-[dC](Cys(free,S-linked))[dR][dR][d2Thi][dR][dA][dR]-NH2) | no significant hemolytic effect | 2.38 | 1.21 | – | –
2 | CC[C@@H](NC(=O)[C@@H](CCCNC(=N)N)NC(=O)[C@@H](CCCNC(=N)N)NC(=O)[C@@H](CSSC[C@H](N)C(=O)O)NC(C)=O)C(=O)N[C@H](CCCNC(=N)N)C(=O)N[C@H](C)C(=O)N[C@H](CCCNC(=N)N)C(N)=O [Compound 17, Ac-c(C)-r-r-(D-Abu)-r-a-r-NH2] (Ac-[dC](Cys(free,S-linked))[dR][dR][dAbu][dR][dA][dR]-NH2) | no significant hemolytic effect | 0.97 | – | reduction in histamine release levels | 6.28
3 | CC[C@@H](NC(=O)[C@@H](CCCNC(=N)N)NC(=O)[C@@H](CCCNC(=N)N)NC(=O)[C@@H](CSSC[C@H](N)C(=O)O)NC(C)=O)C(=O)N[C@H](CCCNC(=N)N)C(=O)N[C@H](CO)C(=O)N[C@H](CCCNC(=N)N)C(N)=O [Compound 31, Ac-c(C)-r-r-(D-Abu)-r-s-r-NH2] (Ac-[dC](Cys(free,S-linked))[dR][dR][dAbu][dR][dS][dR]-NH2) | no significant hemolytic effect | 1.29 | 5.93 | reduction in histamine release levels | –
